The values below are quoted from earlier work in patent publication US20030099708A1, “Printing or dispensing a suspension such as three-dimensional printing of dosage forms” (Therics, Inc, priority 2001, published 2003).

The conditions of this data set: statement in words, no test described.

Structures are written as SMILES.

For the compound `CC[C@@]1(O)C(=O)OCc2c1cc1n(c2=O)Cc2cc3ccccc3nc2-1` [camptothecin], the solubility in water result is on record as “substantially insoluble”.
